Data on 19 molecules can be found in patent US8420052B2, “Imaging agents useful for identifying AD pathology” (Siemens Medical Solutions USA, Inc., priority 2008, dated 2013).

The experiment relates to amyloid plaques and fibrils in human brain slices. Briefly: Human brain slice competition assay using autoradiography. The conditions noted are these: radiolabeled tracer approx. 20 uCi, 90 min rt, lower = more displacement; for _max low dose (percent dose remaining relative to control with no blocker): blocker 0.25 uM; for _max high dose (percent dose remaining relative to control with no blocker): blocker 2.5 uM. The class given is binding. The method, then:
Human Brain Slice Competition Assay Using Autoradiography
Briefly, 5 micron thick human brain slices from regions of the brain bearing high amyloid plaque and fibril burden were incubated with approximately 20 uCi of a radiolabeled tracer in 2.5%:2.5%:95% DMSO:EtOH:PBS in the presence of blocker (2.5 and 0.25 uM total concentration) or absence of blocker (control). The slices were incubated at rt for 90 min. The slices were then quickly washed in PBS, followed by 70% EtOH:PBS for 2 min, then 30% EtOH:PBS for 2 min and then quickly washed with PBS. The slices were dried for 30 min and then exposed on autoradiographic film for 20 min. The brain slices were then removed from the slide and the radioactivity counted in a gamma counter. The percent dose remaining, relative to a control with no blocker, at 0.25 uM is represented in the “_max low dose” column. The percent dose remaining, relative to a control with no blocker, at 2.5 uM is represented in the “_max high dose” column.

The structures appear in SMILES notation.

Turning to `CNc1ccc(-c2nc3ccccc3s2)cc1` [BTA1, reference compound], the “_max low dose (percent dose remaining relative to control with no blocker)” value was 33.66% and the “_max high dose (percent dose remaining relative to control with no blocker)” value is on record as 17.80%.
The matching figures for `FCCOc1ccc2c(c1)[nH]c1ccccc12` [CB1]: 74.86% and 30.34%.
As for `FCCOCCOCCOc1ccc2c(c1)[nH]c1ccccc12` [CB3], the “_max low dose (percent dose remaining relative to control with no blocker)” value came out at 69.78% and the “_max high dose (percent dose remaining relative to control with no blocker)” value is 29.53%.
As to `CNc1ccc2c(c1)[nH]c1cc(OCCOCCOCCF)ccc12` [CB4], the “_max low dose (percent dose remaining relative to control with no blocker)” value stood at 54.17% and the “_max high dose (percent dose remaining relative to control with no blocker)” value worked out at 16.96%.
As to `Cn1c2ccccc2c2ccc(OCCOCCOCCF)cc21` [CB6], the “_max low dose (percent dose remaining relative to control with no blocker)” value stood at 111.02% and the “_max high dose (percent dose remaining relative to control with no blocker)” value was determined as 113.69%.
As to `CN(C)c1ccc2c(c1)[nH]c1cc(OCCOCCOCCF)ccc12` [CB7], the “_max low dose (percent dose remaining relative to control with no blocker)” value is given as 42.64% and the “_max high dose (percent dose remaining relative to control with no blocker)” value is on record as 15.14%.
As to `CNc1ccc2[nH]c3ccc(OCCOCCOCCF)cc3c2c1` [CB8], the “_max low dose (percent dose remaining relative to control with no blocker)” value came to 95.89% and the “_max high dose (percent dose remaining relative to control with no blocker)” value stood at 108.49%.
For the molecule `O=CNc1ccc2c(c1)[nH]c1cc(OCCOCCOCCF)ccc12` [CB9], the “_max low dose (percent dose remaining relative to control with no blocker)” value is on record as 93.92% and the “_max high dose (percent dose remaining relative to control with no blocker)” value is listed as 80.06%.
On to `O=CNc1ccc2c(c1)[nH]c1cc(OCCOCCOCCF)ccc12` [CB10], for which the “_max low dose (percent dose remaining relative to control with no blocker)” value turned out to be 69.29% and the “_max high dose (percent dose remaining relative to control with no blocker)” value turned out to be 21.60%.
Take `O=CNc1ccc2c(c1)[nH]c1cc(OCCF)ccc12` [CB12]: the “_max low dose (percent dose remaining relative to control with no blocker)” value was 59.97% and the “_max high dose (percent dose remaining relative to control with no blocker)” value amounted to 12.29%.
For the molecule `COc1ccc2[nH]c3ccc(NCCF)cc3c2c1` [CB13], the “_max low dose (percent dose remaining relative to control with no blocker)” value is listed as 108.14% and the “_max high dose (percent dose remaining relative to control with no blocker)” value is reported as 110.57%.
Consider `CN(CCCCF)c1ccc2c(c1)[nH]c1cc(O)ccc12` [CB14], for which the “_max low dose (percent dose remaining relative to control with no blocker)” value came out at 114.19% and the “_max high dose (percent dose remaining relative to control with no blocker)” value came out at 49.02%.
In the case of `CC(=O)n1c2ccccc2c2ccc(OCCOCCOCCF)cc21` [CB17], the “_max low dose (percent dose remaining relative to control with no blocker)” value stood at 91.06% and the “_max high dose (percent dose remaining relative to control with no blocker)” value amounted to 62.03%.
Turning to `O=C(c1ccccc1)n1c2ccccc2c2ccc(OCCOCCOCCF)cc21` [CB21], the “_max low dose (percent dose remaining relative to control with no blocker)” value came out at 104.81% and the “_max high dose (percent dose remaining relative to control with no blocker)” value was 94.00%.
`O=c1cc(-c2ccccc2)c2ccc(O)c(O)c2o1` [Compound 73]: the “_max low dose (percent dose remaining relative to control with no blocker)” value was 68.43% and the “_max high dose (percent dose remaining relative to control with no blocker)” value is listed as 34.37%.
For `COc1ccc2cc(-c3ccn[nH]3)ccc2c1` [Compound W1], the “_max low dose (percent dose remaining relative to control with no blocker)” value turned out to be 70.48% and the “_max high dose (percent dose remaining relative to control with no blocker)” value is on record as 35.38%.
Regarding `CN(C)c1ccc(/C=C2/C(=O)Nc3ccccc32)cc1` [Compound W12], the “_max low dose (percent dose remaining relative to control with no blocker)” value turned out to be 105.11% and the “_max high dose (percent dose remaining relative to control with no blocker)” value amounted to 45.98%.
`Oc1cccc2[nH]c3ccccc3c12` [Compound W19]: the “_max low dose (percent dose remaining relative to control with no blocker)” value is 100.46% and the “_max high dose (percent dose remaining relative to control with no blocker)” value is on record as 89.32%.
For `Nc1ccc2c(c1)oc1ccccc12` [Compound W20], the “_max low dose (percent dose remaining relative to control with no blocker)” value was found to be 95.11% and the “_max high dose (percent dose remaining relative to control with no blocker)” value is on record as 43.52%.
